Experimental data: patent US9670463B2, “Inhibition and enhancement of reprogramming by chromatin modifying enzymes” (Children's Medical Center Corporation, priority 2011, dated 2017)

How the values were obtained:
[1] = tested on: Oct4-GFP MEFs; test: Reprogramming of OSKM transduced Oct4-GFP MEFs, AP+ colonies; assay type: cell-based, mouse; conditions: iDot1L 10 um
Description: It was assessed whether these observations can be extended to the murine system. It was observed that, similar to human fibroblasts, iDot1L treatment led to 3-fold enhancement of reprogramming of Oct4-GFP MEFs (FIG. 3D). […] Data correspond to the average and s.d.; n=4. *P<0.001 compared untreated MEFs. Representative AP-stained wells and GFP-positive iPS colonies derived from each condition are shown in the lower panel.

[2] = tested on: H3K79 methylation; test: Total H3K79me2 levels in fibroblasts by western blotting; assay type: cell-based, human; conditions: 1 uM to 10 uM concentration range, fibroblasts treated 5 days
Source text: In addition to the shRNA mediated knockdown of Dot1L, a small molecule inhibitor of Dot1L catalytic activity was used to further validate the findings^15. […] Data correspond to the average and s.d.; n=3. *P<0.001 compared untreated fibroblasts.

[3] = tested on: dH1f cells; test: Reprogramming assay, Tra-1-60+ iPSC colonies from dH1f fibroblasts; assay type: cell-based, human
Description: dH1f cells were first infected with shRNA viruses at high MOI to ensure all cells received at least one vector (Gauged by puromycin resistance of parallel infected wells). 25,000 shRNA-infected dH1f cells were then plated per well in 12-well plates and infected overnight with either retroviral (MOI 2.5) 7 or lentiviral (Addgene #21162, 21164; 100-200 μl supernatant)29 reprogramming factors. For 2-factor reprogramming, Oct4 and Sox2 viruses were used at an MOI of 5. 6 days later, cells were trypsinized and re-plated 1:4 to 1:6 onto 6-well plates. Medium was changed to hES medium daily until Day 21 when plates were fixed. Small molecule inhibitor of Dot1L, EPZ004777 (a gift from Epizyme, Inc., Cambridge, Mass.) was dissolved in DMSO as a 10 mM stock and was added at the indicated concentrations. For Dot1L rescue experiments, an MSCV-based retroviral vector encoding human Dot1L with or without mutations in the SAM binding site (gifts of Y. Zhang) were mutagenized at the shRNA target site using QuikChange II XL Site-Directed Mutagenesis Kit (Agilent Technologies). In certain experiments, Nanog and Lin28 expression was achieved using lentivirus (Addgene #21163). IMR-90 and MRC5 human diploid fibroblasts were purchased from ATCC and 50000 cells were used in reprogramming experiments. Statistical analysis was performed using a Student's t-test.
Immunostaining of reprogramming plates were performed as described^8. Briefly, cells were fixed with 4% p-formaldehyde and stained with biotin-anti-Tra-1-60 (eBioscience, #13-8863-82, 1:250) and streptavidin horseradish peroxidase (Biolegend, #405210, 1:500) diluted in PBS (3%), FCS (0.3%) Triton X-100. Staining was developed with the Vector labs DAB kit (#SK-4100), and iPSC colonies quantified with ImageJ software. For the characterization of shDot1l-iPS cells, single colonies were put onto MEF coated 96-well plates. The plates were fixed for 20 min with 4% p-formaldehyde/PBS (+/+), washed several times with PBS (+/+) and incubated overnight at 4° C. with primary antibody and Hoechst diluted in 3% donkey serum/3% BSA Fraction VII/0.01% Triton X-100/PBS (+/+); Hoechst, Invitrogen #H3570 (1:20,000), Tra-1-81/A488 (BD #560174), SSEA-4/A647 (BD #560219), Tra-1-60/A647 (BD #560122), Nanog, rabbit polyclonal (Abcam #ab21624), Oct4, rabbit polyclonal (Abcam #ab19857). For Nanog and Oct4, donkey anti-rabbit IgG/A555 (Molecular Probes #A31572) secondary antibody was used. After several washes with PBS (+/+), images were acquired using a BD Pathway 435 imager equipped with a ×10 objective.

[4] = tested on: iPS-derived secondary MEFs; test: Reprogramming of inducible iPS-derived secondary MEFs, AP+ colonies; assay type: cell-based, mouse; conditions: doxycycline, iDot1L 10 um
[5] = tested on: H3K79me2; test: ChIP-seq for H3K79me2 on OSKM expressing fibroblasts; assay type: cell-based, human; conditions: iDot1L 10 uM; 6 days after OSKM
Description: ChIP-seq was performed as described with slight modifications^25. 300 000 cells were fixed at room temperature in PBS 1% formalin (v/v) for 10 minutes with gentle agitations. Fixation was stopped by the addition of glycine (125 mM final concentration) and agitation for 5 min at room temperature. Fixed cells were washed twice in ice-cold PBS, resuspended in 100 ul of SDS lysis buffer (1% SDS, 10 mM EDTA, 50 mM Tris-HCl, pH 8.1). Chromatin was sheared by sonication to about 100-500 bp fragments using bioruptor (diagenode, Denville, N.J.) and diluted tenfold with dilution buffer (0.01% SDS, 1.1% Triton-X100, 1.2 mM EDTA, 16.7 mM Tris-HCl, pH 8.1, 167 mM NaCl). Antibodies against specific histone modifications was added to sonicated chromatin solution and incubated at 4 degree overnight with gentle agitation. The antibodies used were anti-H3K27me3 (Millipore 07-449) and anti-H3K79me2 (abcam 3594). Immune complexes were collected by incubation with 20 ul of Protein A/G agarose beads (Millipore) for an hour at 4 degree with gentle agitation. […]

[6] = iDot1L 10 uM, OSKM, Tra-1-60+ colonies at 21 days

CC(C)N(CCCNC(=O)Nc1ccc(C(C)(C)C)cc1)C[C@H]1O[C@@H](n2ccc3c(N)ncnc32)[C@H](O)[C@@H]1O.Cl [EPZ004777]
enhancement of reprogramming of Oct4-GFP MEFs [1]: 3 fold | H3K79 methylation [2]: abrogated H3K79 methylation robustly | enhancement of reprogramming of human fibroblasts ([3]; OSKM, dH1f cells treated for 21 days, relative to untreated): 3-4 fold | reprogramming efficiency, inhibitor combined with Dot1L knockdown ([3]; iDot1L 10 uM plus Dot1L shRNA, OSKM, 21 days): did not result in a further increase of reprogramming efficiency | reprogramming, pretreatment for 5 days prior to OSKM transduction [3, 6]: no effect | reprogramming, treatment in the first or the second week [3, 6]: sufficient to enhance reprogramming | reprogramming in the absence of Klf4, c-Myc or both ([3]; iDot1L 10 uM, Tra-1-60 staining 21 days after reprogramming): allowed reprogramming in the absence of either Klf4 or Myc and was able to replace both of these exogenous factors | reprogramming efficiency of secondary MEFs [4]: increased reprogramming efficiency | K79me2 levels on genes [5]: reduced on almost all genes
